Assay: Agonist activity at adenosine A3 receptor (unknown origin) expressed in serum starved CHO cells assessed as increase in cell survival after 24 hrs by propidium iodide staining-based assay

Structure (SMILES) | EC50
CNC(=O)[C@@]12C[C@@H]1[C@@H](n1cnc3c(NCc4cccc(Cl)c4)nc(C#Cc4ccc5ccc6cccc7ccc4c5c67)nc31)[C@H](O)[C@@H]2O | 13 nM
CNC(=O)[C@@]12C[C@@H]1[C@@H](n1cnc3c(NCc4cccc(Cl)c4)nc(C#Cc4ccccc4)nc31)[C@H](O)[C@@H]2O | 0.2 nM
CNC(=O)[C@@]12C[C@@H]1[C@@H](n1cnc3c(NCc4cccc(Cl)c4)nc(C#Cc4ccc(-c5ccccc5)cc4)nc31)[C@H](O)[C@@H]2O | 0.251 nM
CNC(=O)[C@@]12C[C@@H]1[C@@H](n1cnc3c(NCc4cccc(Cl)c4)nc(C#Cc4cc5cccc6ccc7cccc4c7c65)nc31)[C@H](O)[C@@H]2O | 20 nM
